Measurements taken from patent US8685974B2 (Bayer CropScience AG, priority 2009, dated 2014).

Assay: physchem

Question: For `CC(=O)N(C(C)=O)c1cc(-c2cn(C(C)C)nc2-c2ccc(Cl)s2)ccn1` [N-Acetyl-N-{4-[3-(5-chloro-2-thienyl)-1-isopropyl-1H-pyrazol-4-yl]pyridin-2-yl}acetamide], which log p (pH 2.7) is on record?
Answer: 3.33

Question: Which log p (pH 2.7) does the source give for `CCC(C)n1ncc(-c2ccncc2)c1-c1ccc(F)s1` (stereo not shown) [4-[1-sec-butyl-5-(5-fluoro-2-thienyl)-1H-pyrazol-4-yl]pyridine] here?
Answer: 1.84

Question: For `CCCn1cc(I)c(-c2cccs2)n1` [4-Iodo-1-propyl-3-(2-thienyl)-1H-pyrazole], which log p (pH 2.7) is on record?
Answer: 3.65

Question: Which log p (pH 2.7) does the source give for `O=C(Cc1ccnc(Cl)c1)c1ccc(Cl)s1` [1-(5-chloro-2-thienyl)-2-(2-chloropyridin-4-yl)ethanone] here?
Answer: 2.94

Question: With `N#Cc1[nH]nc(-c2ccc(Cl)s2)c1-c1ccncc1` [3-(5-Chloro-2-thienyl)-4-(pyridin-4-yl)-1H-pyrazole-5-carbonitrile] as the molecule, how does the log p (pH 2.7) read?
Answer: 1.53

Question: With `CC(C)Nc1nccc(CC(=O)c2ccc(Cl)s2)n1` as the molecule, how does the log p (pH 2.7) read?
Answer: 2.37

Question: With `Cc1csc(-c2ccnn2C(C)C)c1` [1-Isopropyl-5-(4-methyl-2-thienyl)-1H-pyrazole] as the molecule, how does the log p (pH 2.7) read?
Answer: 3.18

Question: For `CCC(C)n1nc(-c2ccc(Cl)s2)c(-c2ccncc2)c1F` (stereo not shown) [4-[3-(5-Chloro-2-thienyl)-5-fluoro-1-secbutyl-1H-pyrazol-4-yl]pyridine], which log p (pH 2.7) is on record?
Answer: 2.61

Question: For `Ic1c[nH]nc1-c1cccs1` [4-Iodo-3-(2-thienyl)-1H-pyrazole], which log p (pH 2.7) is on record?
Answer: 2.1

Question: Which chromatographic logP (pH 2.7) does the source give for `CCC(=O)Nc1cc(-c2cn(CC)nc2-c2cccs2)ccn1` [Example 149, N-{4-[1-Ethyl-3-(2-thienyl)-1H-pyrazol-4-yl]pyridin-2-yl}propanamide] here?
Answer: 1.65

Question: What about the chromatographic logP (pH 7.8) of the same molecule?
Answer: 2.26

Question: With `CC(C)n1cc(-c2ccnc(S(C)(=O)=O)n2)c(-c2ccc(Cl)s2)n1` [4-[3-(5-Chloro-2-thienyl)-1-isopropyl-1H-pyrazol-4-yl]-2-(methylsulfonyl)pyrimidine] as the molecule, how does the log p (pH 2.7) read?
Answer: 3.15

Question: Which log p (pH 2.7) does the source give for `CC(C)n1cc(I)c(-c2cccs2)n1` [4-Iodo-1-isopropyl-3-(2-thienyl)-1H-pyrazole] here?
Answer: 3.71

Question: For `CCCn1ccc(-c2cc(C)cs2)n1` [3-(4-Methyl-2-thienyl)-1-propyl-1H-pyrazole], which log p (pH 2.7) is on record?
Answer: 3.07

Question: With `Clc1ccc(-c2n[nH]c(Br)c2-c2ccncc2)s1` [4-[5-Bromo-3-(5-chloro-2-thienyl)-1H-pyrazol-4-yl]pyridine] as the molecule, how does the log p (pH 2.7) read?
Answer: 1.4

Question: With `CC(C)n1ncc(-c2ccncc2)c1-c1ccc(F)s1` [4-[1-Isopropyl-5-(5-fluoro-2-thienyl)-1H-pyrazol-4-yl]pyridine] as the molecule, how does the log p (pH 2.7) read?
Answer: 1.51

Question: For `CCCc1cc(-c2cccs2)n(C)n1` [1-Methyl-3-propyl-5-(2-thienyl)-1H-pyrazole], which log p (pH 2.7) is on record?
Answer: 2.9

Question: Which log p (pH 2.7) does the source give for `CC(C)Nc1nccc(-c2c[nH]nc2-c2ccc(Cl)s2)n1` [4-[3-(5-Chloro-2-thienyl)-1H-pyrazol-4-yl]-2-(isopropylamino)pyrimidine] here?
Answer: 1.79

Question: With `CN(C)C=C(C(=O)c1ccc(Cl)s1)c1ccncc1` [1-(5-chloro-2-thienyl)-3-(dimethylamino)-2-(pyridin-4-yl)prop-2-en-1-one] as the molecule, how does the log p (pH 2.7) read?
Answer: 1.07

Question: With `CCCn1nccc1-c1cccs1` [1-Propyl-5-(2-thienyl)-1H-pyrazole] as the molecule, how does the log p (pH 2.7) read?
Answer: 2.64

Question: Which log p (pH 2.7) does the source give for `Clc1ccc(-c2n[nH]c(C3CC3)c2-c2ccncc2)s1` [4-[3-(5-Chloro-2-thienyl)-5-cyclopropyl-1H-pyrazol-4-yl]pyridine] here?
Answer: 1.29

Question: Which log p (pH 2.7) does the source give for `CC(C)Cn1cc(-c2ccnc3ccccc23)c(-c2ccc(Cl)s2)n1` [4-[3-(5-chloro-2-thienyl)-1-isobutyl-1H-pyrazol-4-yl]quinoline] here?
Answer: 3.69

Question: Which log p (pH 2.7) does the source give for `CCC(C)n1nccc1-c1cc(C)cs1` (stereo not shown) [1-sec-Butyl-5-(4-methyl-2-thienyl)-1H-pyrazole] here?
Answer: 3.65

Question: With `Brc1cc(-c2cc[nH]n2)sc1Br` [3-(4,5-Dibromo-2-thienyl)-1H-pyrazole] as the molecule, how does the log p (pH 2.7) read?
Answer: 2.74

Question: With `CC(C)n1cc(-c2ccncc2)c(-c2ccc(Cl)s2)n1` [4-[1-Isopropyl-3-(5-chloro-2-thienyl)-1H-pyrazol-4-yl]pyridine] as the molecule, how does the log p (pH 2.7) read?
Answer: 1.82

Question: Which log p (pH 2.7) does the source give for `CCC(C)n1ccc(-c2cc(C)cs2)n1` (stereo not shown) [1-sec-Butyl-3-(4-methyl-2-thienyl)-1H-pyrazole] here?
Answer: 3.63

Question: Which log p (pH 2.7) does the source give for `CSc1nccc(-c2cn(C(C)C)nc2-c2ccc(Cl)s2)n1` [4-[3-(5-Chloro-2-thienyl)-1-isopropyl-1H-pyrazol-4-yl]-2-(methylsulfanyl)pyrimidine] here?
Answer: 4.44

Question: For `CCC(C)n1ncc(-c2ccncc2)c1-c1ccc(Cl)s1` (stereo not shown) [4-[1-sec-Butyl-5-(5-chloro-2-thienyl)-1H-pyrazol-4-yl]pyridine], which log p (pH 2.7) is on record?
Answer: 1.94

Question: With `CCC(C)n1ncc(I)c1-c1cccs1` (stereo not shown) [1-sec-Butyl-4-iodo-5-(2-thienyl)-1H-pyrazole] as the molecule, how does the log p (pH 2.7) read?
Answer: 4.12

Question: For `CC(=O)Nc1nccc(-c2cn(C(C)C)nc2-c2ccc(Cl)s2)n1` [N-{4-[3-(5-Chloro-2-thienyl)-1-isopropyl-1H-pyrazol-4-yl]pyrimidin-2-yl}acetamide], which log p (pH 2.7) is on record?
Answer: 2.59

Question: Which log p (pH 2.7) does the source give for `CCC(=O)Nc1cc(-c2cn(CC)nc2-c2cccs2)ccn1` [N-{4-[1-Ethyl-3-(2-thienyl)-1H-pyrazol-4-yl]pyridin-2-yl}propanamide] here?
Answer: 1.65

Question: For `CCn1cc(-c2ccncc2)c(-c2cccs2)n1` [4-[1-Ethyl-3-(2-thienyl)-1H-pyrazol-4-yl]pyridine], which log p (pH 2.7) is on record?
Answer: 0.75

Question: Which chromatographic logP (pH 2.7) does the source give for `CCn1cc(-c2ccncc2)c(-c2cccs2)n1` [Example 148, 4-[1-Ethyl-3-(2-thienyl)-1H-pyrazol-4-yl]pyridine] here?
Answer: 0.75

Question: And the chromatographic logP (pH 7.8)?
Answer: 2.06

Question: With `CCCn1nccc1-c1cc(C)cs1` [5-(4-Methyl-2-thienyl)-1-propyl-1H-pyrazole] as the molecule, how does the log p (pH 2.7) read?
Answer: 3.1

Question: With `CCn1ccc(-c2cccs2)n1` [1-Ethyl-3-(2-thienyl)-1H-pyrazole] as the molecule, how does the log p (pH 2.7) read?
Answer: 2.14

Question: For `CC(C)Cn1cc(-c2ccnc(N(C(=O)C3CC3)C(=O)C3CC3)c2)c(-c2ccc(Cl)s2)n1` [N-{4-[3-(5-chloro-2-thienyl)-1-isobutyl-1H-pyrazol-4-yl]pyridin-2-yl}-N-(cyclopropylcarbonyl)cyclopropanecarboxamide], which log p (pH 2.7) is on record?
Answer: 4.75

Question: With `CC(C)n1ccc(-c2cccs2)n1` [1-Isopropyl-3-(2-thienyl)-1H-pyrazole] as the molecule, how does the log p (pH 2.7) read?
Answer: 2.66

Question: With `CCC(C)n1nccc1-c1cccs1` (stereo not shown) [1-sec-Butyl-5-(2-thienyl)-1H-pyrazole] as the molecule, how does the log p (pH 2.7) read?
Answer: 2.97

Question: For `CCC[CH2][Sn]([CH2]CCC)([CH2]CCC)[c]1c(-c2ccncc2)cnn1C1CCCCO1` (stereo not shown) [4-[1-(tetrahydro-2H-pyran-2-yl)-5-(tributylstannyl)-1H-pyrazol-4-yl]pyridine], which log p (pH 2.7) is on record?
Answer: 4.89

Question: For `CCC(C)n1cc(I)c(-c2cc(C)cs2)n1` (stereo not shown) [1-sec-Butyl-4-iodo-3-(4-methyl-2-thienyl)-1H-pyrazole], which log p (pH 2.7) is on record?
Answer: 4.79

Question: With `CN(C)C=CC(=O)c1cccs1` [3-(Dimethylamino)-1-(2-thienyl)prop-2-en-1-one] as the molecule, how does the log p (pH 2.7) read?
Answer: 1.33

Question: For `CC(C)Nc1nccc(-c2cn(C(C)C)nc2-c2ccc(Cl)s2)n1` [N-Isopropyl-4-[3-(5-chloro-2-thienyl)-1-isopropyl-1H-pyrazol-4-yl]pyrimidin-2-amine], which log p (pH 2.7) is on record?
Answer: 2.82

Question: With `CC(C)Cn1cc(-c2ccnc(Cl)c2)c(-c2ccc(Cl)s2)n1` [2-Chloro-4-[1-isobutyl-3-(5-chloro-2-thienyl)-1H-pyrazol-4-yl]pyridine] as the molecule, how does the log p (pH 2.7) read?
Answer: 4.85

Question: With `CN(C)C=C(C(=O)c1ccc(Cl)s1)c1ccnc(Cl)c1` [1-(5-chloro-2-thienyl)-3-(dimethylamino)-2-(2-chloropyridin-4-yl)prop-2-en-1-one] as the molecule, how does the log p (pH 2.7) read?
Answer: 2.58

Question: With `CCn1nccc1-c1cc(C)cs1` [1-Ethyl-5-(4-methyl-2-thienyl)-1H-pyrazole] as the molecule, how does the log p (pH 2.7) read?
Answer: 2.68

Question: With `CCn1ccc(-c2cc(C)cs2)n1` [1-Ethyl-3-(4-methyl-2-thienyl)-1H-pyrazole] as the molecule, how does the log p (pH 2.7) read?
Answer: 2.64

Question: For `CC(C)n1cc(-c2ccncc2)c(-c2ccc(F)s2)n1` [4-[1-Isopropyl-3-(5-fluoro-2-thienyl)-1H-pyrazol-4-yl]pyridine], which log p (pH 2.7) is on record?
Answer: 1.53

Question: For `CC(C)n1ncc(-c2ccncc2)c1-c1ccc(Cl)s1` [4-[1-Isopropyl-5-(5-chloro-2-thienyl)-1H-pyrazol-4-yl]pyridine], which log p (pH 2.7) is on record?
Answer: 1.7

Question: For `CSc1nccc(CC(=O)c2ccc(Cl)s2)n1` [1-(5-Chloro-2-thienyl)-2-[2-(methylsulfanyl)pyrimidin-4-yl]ethanone], which log p (pH 2.7) is on record?
Answer: 2.98

Question: Which log p (pH 2.7) does the source give for `CCC(C)n1cc(I)c(-c2cc(Cl)cs2)n1` (stereo not shown) [1-sec-Butyl-3-(4-chloro-2-thienyl)-4-iodo-1H-pyrazole] here?
Answer: 5.01

Question: Which log p (pH 2.7) does the source give for `Clc1cc(-c2c[nH]nc2-c2ccc(Cl)s2)ccn1` [2-Chloro-4-[3-(5-chloro-2-thienyl)-1H-pyrazol-4-yl]pyridine] here?
Answer: 2.75

Question: For `CCC(C)n1cc(-c2ccncc2)c(-c2ccc(F)s2)n1` (stereo not shown) [4-[1-sec-butyl-3-(5-fluoro-2-thienyl)-1H-pyrazol-4-yl]pyridine], which log p (pH 2.7) is on record?
Answer: 1.78

Question: Which log p (pH 2.7) does the source give for `Clc1ccc(-c2nn(C3CC3)cc2-c2ccncc2)s1` [4-[1-Cyclopropyl-3-(5-chloro-2-thienyl)-1H-pyrazol-4-yl]pyridine] here?
Answer: 1.62

Question: With `Cc1csc(-c2ccnn2C)c1` [1-Methyl-5-(4-methyl-2-thienyl)-1H-pyrazole] as the molecule, how does the log p (pH 2.7) read?
Answer: 2.26

Question: With `CC(C)n1ncc(I)c1-c1cccs1` [4-Iodo-1-isopropyl-5-(2-thienyl)-1H-pyrazole] as the molecule, how does the log p (pH 2.7) read?
Answer: 3.66

Question: For `Cc1csc(C(=O)C=CN(C)C)c1` [3-(Dimethylamino)-1-(4-methyl-2-thienyl)prop-2-en-1-one], which log p (pH 2.7) is on record?
Answer: 1.65

Question: For `Cc1csc(-c2ccn(C(C)C)n2)c1` [1-Isopropyl-3-(4-methyl-2-thienyl)-1H-pyrazole], which log p (pH 2.7) is on record?
Answer: 3.14

Question: Which log p (pH 2.7) does the source give for `CC(C)Cn1cc(-c2ccncc2)c(-c2ccc(Br)s2)n1` [4-[1-isobutyl-3-(5-bromo-2-thienyl)-1H-pyrazol-4-yl]pyridine] here?
Answer: 2.04

Question: For `CCCc1cc(-c2sccc2C)n(C)n1` [1-Methyl-5-(3-methyl-2-thienyl)-3-propyl-1H-pyrazole], which log p (pH 2.7) is on record?
Answer: 3.34

Question: With `CCn1nc(-c2ccc(Cl)s2)c(Br)c1C` [4-Bromo-3-(5-chloro-2-thienyl)-1-ethyl-5-methyl-1H-pyrazole] as the molecule, how does the log p (pH 2.7) read?
Answer: 4.54

Question: Which log p (pH 2.7) does the source give for `CC(C)n1ccc(-c2cc(Br)cs2)n1` [3-(4-Bromo-2-thienyl)-1-isopropyl-1H-pyrazole] here?
Answer: 3.61

Question: With `C#CCNc1cc(-c2cn(CC(C)C)nc2-c2ccc(Cl)s2)ccn1` [2-Propargylamino-4-[1-isobutyl-3-(5-chloro-2-thienyl)-1H-pyrazol-4-yl]pyridine] as the molecule, how does the log p (pH 2.7) read?
Answer: 2.3

Question: With `CCC(C)n1cc(-c2ccnc(Cl)c2)c(-c2ccc(Cl)s2)n1` (stereo not shown) [2-Chloro-4-[1-sec-butyl-3-(5-chloro-2-thienyl)-1H-pyrazol-4-yl]pyridine] as the molecule, how does the log p (pH 2.7) read?
Answer: 4.9
